Values quoted from earlier work, collected in PubChem BioAssay AID1259409 (Chemical Carcinogenesis Research Information System (CCRIS), 2018).

Tested on: rodent chemically induced tumor inhibition, incidence and multiplicity
Experiment: CCRIS tumor inhibitor studies
Details: Dose [Inhibitor]: 0, Route [Inhibitor]: ORAL

C[C@]12CC[C@H](O)CC1=CC[C@@H]1[C@@H]2CC[C@]2(C)C(=O)CC[C@@H]12
tumour outcome (control, treated, inhibition, significance) (Carcinogen: N-BUTYL-N-(4-HYDROXYBUTYL)NITROSAMINE, 3817-11-6, 0.6% IN DIET BEGINNING 3 D POST CARCINOGEN TREATMENT AND CONTINUING FOR 32 WK (STUDY DURATION: 36 WK), Species: RAT, Strain/Sex: F344/MALE, Target Tissue: Type of Lesion: URINARY BLADDER: PAPILLOMA, Dose [Carcinogen]: 0.05% IN DRINKING WATER FOR 4 WK, Promoter: BUTYLATED HYDROXYANISOLE, 25013-16-5): 12/15 (80%), 6/15 (40%), 50%, p<0.05 | tumour outcome (control, treated, inhibition, significance) (Carcinogen: N-METHYL-N'-NITRO-N-NITROSOGUANIDINE, 70-25-7, 55 PPM IN DIET FOR 6 MO BEGINNING 3 MO POST CARCINOGEN TREATMENT (STUDY DURATION: 9 MO), Species: FISH, Strain/Sex: RAINBOW TROUT/MALE,FEMALE, Target Tissue: Type of Lesion: STOMACH: TUMOR, Dose [Carcinogen]: 35 PPM IN WATER FOR 30 MIN ONCE, Promoter: NONE USED): 38%, 34%, 11%, not significant | tumour outcome (control, treated, inhibition, significance) (Carcinogen: N-METHYL-N'-NITRO-N-NITROSOGUANIDINE, 70-25-7, 55 PPM IN DIET FOR 6 MO BEGINNING 3 MO POST CARCINOGEN TREATMENT (STUDY DURATION: 9 MO), Species: FISH, Strain/Sex: RAINBOW TROUT/MALE,FEMALE, Target Tissue: Type of Lesion: SWIN BLADDER: TUMOR, Dose [Carcinogen]: 35 PPM IN WATER FOR 30 MIN ONCE, Promoter: NONE USED): 13%, 3%, 77%, p<0.05 | tumour outcome (control, treated, inhibition, significance) (Carcinogen: N-METHYL-N'-NITRO-N-NITROSOGUANIDINE, 70-25-7, 111 PPM IN DIET FOR 6 MO BEGINNING 3 MO POST CARCINOGEN TREATMENT (STUDY DURATION: 9 MO), Species: FISH, Strain/Sex: RAINBOW TROUT/MALE,FEMALE, Target Tissue: Type of Lesion: STOMACH: TUMOR, Dose [Carcinogen]: 35 PPM IN WATER FOR 30 MIN ONCE, Promoter: NONE USED): 38%, 27%, 29%, not significant | tumour outcome (control, treated, inhibition, significance) (Carcinogen: N-METHYL-N'-NITRO-N-NITROSOGUANIDINE, 70-25-7, 111 PPM IN DIET FOR 6 MO BEGINNING 3 MO POST CARCINOGEN TREATMENT (STUDY DURATION: 9 MO), Species: FISH, Strain/Sex: RAINBOW TROUT/MALE,FEMALE, Target Tissue: Type of Lesion: SWIM BLADDER: TUMOR, Dose [Carcinogen]: 35 PPM IN WATER FOR 30 MIN ONCE, Promoter: NONE USED): 13%, 3%, 77%, p<0.05 | tumour outcome (control, treated, inhibition, significance) (Carcinogen: N-METHYL-N'-NITRO-N-NITROSOGUANIDINE, 70-25-7, 222 PPM IN DIET FOR 6 MO BEGINNING 3 MO POST CARCINOGEN TREATMENT (STUDY DURATION: 9 MO), Species: FISH, Strain/Sex: RAINBOW TROUT/MALE,FEMALE, Target Tissue: Type of Lesion: STOMACH: TUMOR, Dose [Carcinogen]: 35 PPM IN WATER FOR 30 MIN ONCE, Promoter: NONE USED): 38%, 31%, 18%, not significant | tumour outcome (control, treated, inhibition, significance) (Carcinogen: N-METHYL-N'-NITRO-N-NITROSOGUANIDINE, 70-25-7, 222 PPM IN DIET FOR 6 MO BEGINNING 3 MO POST CARCINOGEN TREATMENT (STUDY DURATION: 9 MO), Species: FISH, Strain/Sex: RAINBOW TROUT/MALE,FEMALE, Target Tissue: Type of Lesion: SWIM BLADDER: TUMOR, Dose [Carcinogen]: 35 PPM IN WATER FOR 30 MIN ONCE, Promoter: NONE USED): 13%, 3%, 77%, p<0.05 | tumour outcome (control, treated, inhibition, significance) (Carcinogen: N-METHYL-N'-NITRO-N-NITROSOGUANIDINE, 70-25-7, 444 PPM IN DIET FOR 6 MO BEGINNING 3 MO POST CARCINOGEN TREATMENT (STUDY DURATION: 9 MO), Species: FISH, Strain/Sex: RAINBOW TROUT/MALE,FEMALE, Target Tissue: Type of Lesion: STOMACH: TUMOR, Dose [Carcinogen]: 35 PPM IN WATER FOR 30 MIN ONCE, Promoter: NONE USED): 38%, 36%, 5%, not significant | tumour outcome (control, treated, inhibition, significance) (Carcinogen: N-METHYL-N'-NITRO-N-NITROSOGUANIDINE, 70-25-7, 444 PPM IN DIET FOR 6 MO BEGINNING 3 MO POST CARCINOGEN TREATMENT (STUDY DURATION: 9 MO), Species: FISH, Strain/Sex: RAINBOW TROUT/MALE,FEMALE, Target Tissue: Type of Lesion: SWIM BLADDER: TUMOR, Dose [Carcinogen]: 35 PPM IN WATER FOR 30 MIN ONCE, Promoter: NONE USED): 13%, 8%, 38%, not significant | tumour outcome (control, treated, inhibition, significance) (Carcinogen: N-METHYL-N'-NITRO-N-NITROSOGUANIDINE, 70-25-7, 888 PPM IN DIET FOR 6 MO BEGINNING 3 MO POST CARCINOGEN TREATMENT (STUDY DURATION: 9 MO), Species: FISH, Strain/Sex: RAINBOW TROUT/MALE,FEMALE, Target Tissue: Type of Lesion: STOMACH: TUMOR, Dose [Carcinogen]: 35 PPM IN WATER FOR 30 MIN ONCE, Promoter: NONE USED): 38%, 26%, 32%, not significant | tumour outcome (control, treated, inhibition, significance) (Carcinogen: N-METHYL-N'-NITRO-N-NITROSOGUANIDINE, 70-25-7, 888 PPM IN DIET FOR 6 MO BEGINNING 3 MO POST CARCINOGEN TREATMENT (STUDY DURATION: 9 MO), Species: FISH, Strain/Sex: RAINBOW TROUT/MALE,FEMALE, Target Tissue: Type of Lesion: SWIM BLADDER: TUMOR, Dose [Carcinogen]: 35 PPM IN WATER FOR 30 MIN ONCE, Promoter: NONE USED): 13%, 6%, 54%, not significant | tumour outcome (control, treated, inhibition, significance) (Carcinogen: N-METHYL-N-NITROSOUREA, 684-93-5, 0.1% IN DIET FOR DURATION OF STUDY BEGINNING 1 WK PRIOR TO CARCINOGEN DOSE (STUDY DURATION: 187 D), Species: RAT, Strain/Sex: SPRAGUE-DAWLEY/FEMALE, Target Tissue: Type of Lesion: MAMMARY GLAND: CARCINOMA, Dose [Carcinogen]: 50 MG/KG ONCE AT 50 D OF AGE, Promoter: NONE USED): 100%, 68%, 32%, p<0.05 | tumour outcome (control, treated, inhibition, significance) (Carcinogen: N-METHYL-N-NITROSOUREA, 684-93-5, 0.2% IN DIET FOR 2 WK BEGINNING 1 WK PRIOR TO CARCINOGEN DOSE (STUDY DURATION: 187 D), Species: RAT, Strain/Sex: SPRAGUE-DAWLEY/FEMALE, Target Tissue: Type of Lesion: MAMMARY GLAND: CARCINOMA, Dose [Carcinogen]: 50 MG/KG ONCE AT 50 D OF AGE, Promoter: NONE USED): 100%, 100%, 0%, not significant | tumour outcome (control, treated, inhibition, significance) (Carcinogen: N-METHYL-N-NITROSOUREA, 684-93-5, 0.2% IN DIET FOR DURATION OF STUDY BEGINNING 1 WK POST CARCINOGEN DOSE (STUDY DURATION: 180 D), Species: RAT, Strain/Sex: SPRAGUE-DAWLEY/FEMALE, Target Tissue: Type of Lesion: MAMMARY GLAND: CARCINOMA, Dose [Carcinogen]: 50 MG/KG ONCE AT 50 D OF AGE, Promoter: NONE USED): 100%, 67%, 33%, p<0.05 | tumour outcome (control, treated, inhibition, significance) (Carcinogen: N-METHYL-N-NITROSOUREA, 684-93-5, 0.2% IN DIET FOR DURATION OF STUDY BEGINNING 1 WK PRIOR TO CARCINOGEN DOSE (STUDY DURATION: 187 D), Species: RAT, Strain/Sex: SPRAGUE-DAWLEY/FEMALE, Target Tissue: Type of Lesion: MAMMARY GLAND: CARCINOMA, Dose [Carcinogen]: 50 MG/KG ONCE AT 50 D OF AGE, Promoter: NONE USED): 100%, 48%, 52%, p<0.05
